Test results taken from patent US7211423B2 (Bristol-Myers Squibb Co., priority 2004, dated 2007).

Columns and labels:
[1] = biological target: T1, recombinant human ACC2 (Homo sapiens, UniProt O00763, V2141I); test: ACC enzyme activity assay ([14C]bicarbonate fixation) with purified recombinant human ACC2; type: biochemical; conditions: for Km: substrate varied, all other reagents saturating, 37° C.; for IC50: concentration dependent inhibition of recombinant human ACC2
T1 construct: To delete the NH2-terminus 148 amino acid of human ACC2; 6xHis (C); made in house; host or cells: Sf9 insect cells infected with recombinant baculovirus (pBlueBac-human-ACC2-Delta148-V5-Myc-His-WT); purified on a c-Myc-5 IgG column
T1 sequence (O00763 149-2458 V2141I): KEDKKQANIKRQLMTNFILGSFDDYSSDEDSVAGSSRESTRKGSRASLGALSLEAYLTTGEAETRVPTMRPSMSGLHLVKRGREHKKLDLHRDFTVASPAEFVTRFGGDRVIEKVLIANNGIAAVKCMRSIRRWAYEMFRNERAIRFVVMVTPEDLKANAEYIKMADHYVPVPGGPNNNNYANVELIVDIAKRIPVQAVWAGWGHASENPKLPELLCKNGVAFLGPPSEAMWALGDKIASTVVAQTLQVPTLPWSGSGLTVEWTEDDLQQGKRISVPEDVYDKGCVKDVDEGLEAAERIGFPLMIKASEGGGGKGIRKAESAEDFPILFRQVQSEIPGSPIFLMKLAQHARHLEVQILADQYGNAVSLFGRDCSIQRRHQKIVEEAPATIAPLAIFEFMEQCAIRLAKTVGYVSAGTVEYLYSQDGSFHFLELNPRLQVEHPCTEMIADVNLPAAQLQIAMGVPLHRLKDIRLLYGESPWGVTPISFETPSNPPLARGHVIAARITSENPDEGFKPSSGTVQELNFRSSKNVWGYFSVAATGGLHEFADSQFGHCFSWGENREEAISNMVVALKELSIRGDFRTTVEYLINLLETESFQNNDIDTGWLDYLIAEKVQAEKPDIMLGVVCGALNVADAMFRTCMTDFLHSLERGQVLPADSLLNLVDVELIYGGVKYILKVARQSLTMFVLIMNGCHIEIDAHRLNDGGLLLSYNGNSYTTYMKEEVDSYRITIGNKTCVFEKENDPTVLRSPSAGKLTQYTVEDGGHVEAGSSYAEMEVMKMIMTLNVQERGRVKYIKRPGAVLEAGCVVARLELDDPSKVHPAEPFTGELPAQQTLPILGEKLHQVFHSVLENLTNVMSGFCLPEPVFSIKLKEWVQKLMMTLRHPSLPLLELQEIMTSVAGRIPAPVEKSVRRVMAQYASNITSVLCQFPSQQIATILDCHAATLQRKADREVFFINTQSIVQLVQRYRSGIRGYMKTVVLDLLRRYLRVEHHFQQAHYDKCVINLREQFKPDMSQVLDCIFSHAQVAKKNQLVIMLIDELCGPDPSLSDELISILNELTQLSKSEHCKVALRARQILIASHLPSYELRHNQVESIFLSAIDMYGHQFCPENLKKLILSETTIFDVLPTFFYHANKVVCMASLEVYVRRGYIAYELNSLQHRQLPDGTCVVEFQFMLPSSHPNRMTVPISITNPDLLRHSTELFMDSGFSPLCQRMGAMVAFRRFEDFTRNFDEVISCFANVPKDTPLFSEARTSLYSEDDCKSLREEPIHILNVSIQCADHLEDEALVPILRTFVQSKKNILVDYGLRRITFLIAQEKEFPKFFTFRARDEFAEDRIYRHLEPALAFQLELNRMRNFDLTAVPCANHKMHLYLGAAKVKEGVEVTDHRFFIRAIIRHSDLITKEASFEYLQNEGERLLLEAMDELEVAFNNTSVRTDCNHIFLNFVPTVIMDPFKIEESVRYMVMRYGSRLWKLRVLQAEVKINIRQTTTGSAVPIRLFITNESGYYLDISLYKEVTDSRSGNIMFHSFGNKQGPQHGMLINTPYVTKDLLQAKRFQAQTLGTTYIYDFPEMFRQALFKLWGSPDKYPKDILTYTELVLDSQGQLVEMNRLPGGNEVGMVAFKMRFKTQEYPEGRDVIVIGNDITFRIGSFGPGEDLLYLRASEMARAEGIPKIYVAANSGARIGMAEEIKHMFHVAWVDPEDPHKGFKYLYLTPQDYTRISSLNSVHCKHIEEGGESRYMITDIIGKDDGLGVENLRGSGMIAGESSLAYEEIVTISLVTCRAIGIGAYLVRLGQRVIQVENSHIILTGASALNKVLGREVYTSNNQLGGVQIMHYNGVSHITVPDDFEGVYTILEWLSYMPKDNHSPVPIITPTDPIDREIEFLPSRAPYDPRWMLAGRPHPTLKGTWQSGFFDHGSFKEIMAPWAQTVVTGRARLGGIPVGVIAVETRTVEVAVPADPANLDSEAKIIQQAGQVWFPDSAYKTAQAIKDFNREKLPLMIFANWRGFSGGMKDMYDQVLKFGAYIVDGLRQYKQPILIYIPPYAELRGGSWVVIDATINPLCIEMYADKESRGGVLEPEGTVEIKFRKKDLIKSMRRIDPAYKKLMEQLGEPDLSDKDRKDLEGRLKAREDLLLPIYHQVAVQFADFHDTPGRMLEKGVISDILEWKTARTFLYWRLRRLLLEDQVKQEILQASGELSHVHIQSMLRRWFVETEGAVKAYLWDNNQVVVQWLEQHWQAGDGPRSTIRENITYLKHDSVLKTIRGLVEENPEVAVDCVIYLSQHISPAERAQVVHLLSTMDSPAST
Protocol: ACC enzymatic assays were carried out essentially according to Tanabe et al. (Tanabe et al., (1981) Methods Enzymol. 71 Pt C, 5–16) with modifications. […] Aliquots of 30 μl of 25 mM KH[^14C]O3 (specific activity 1.3 μCi/μmol, final KH[^14C]O3, concentration 5 mM) was then added to the mixture to initiate the reaction which was carried out for 10 min at 37° C. At the end, the reactions were quenched with 50 μl 2 N HCl and the vials were heated for 2 hours at 80° C. to remove excess bicarbonate as ^14CO2. Scintillant was then added and the acid-stable malonyl CoA remaining in the vial was counted in a scintillation counter. ACC specific activities were expressed as nmol/min/mg protein.

[2] = system: Rat ACC2; conditions: Trumble et al. (1995), cited from earlier work; for IC50: literature value for rat ACC2 enzyme
[3] = biological target: Rat ACC1 (Rattus norvegicus, UniProt P11497); conditions: literature value, Trumble et al. (1995); cited from earlier work

Compound	IC50 [1]	Km [1]	Km ([2]; literature value)	Km [3]	IC50 [2]	further results
Nc1ncnc2c1ncn2[C@@H]1O[C@H](COP(=O)(O)OP(=O)(O)OP(=O)(O)O)[C@@H](O)[C@H]1O [ATP]	–	270 µM	58 µM	110 µM	–	–
CC(=O)SCCNC(=O)CCNC(=O)[C@H](O)C(C)(C)COP(=O)(O)OP(=O)(O)OC[C@H]1O[C@@H](n2cnc3c(N)ncnc32)[C@H](O)[C@@H]1OP(=O)(O)O [Acetyl CoA, acetyl CoA]	–	–	32 µM	22 µM	–	–
O=C(O)CC(O)(CC(=O)O)C(=O)O [Citrate]	–	–	–	–	–	Kact ([2]; literature value): 2.1 mM; Kact [3]: 3 mM
O=C(O)O [HCO3^−, bicarbonate]	–	5000 µM	2300 µM	2700 µM	–	–

The next lines start with results.

IC50 [1]	Compound	Km [1]	Km ([2]; literature value)	Km [3]	IC50 [2]	further results
26.7 µM	CC(C)(COP(=O)(O)OP(=O)(O)OC[C@H]1O[C@@H](n2cnc3c(N)ncnc32)[C@H](O)[C@@H]1OP(=O)(O)O)[C@@H](O)C(=O)NCCC(=O)NCCSC(=O)CC(=O)O [malonyl CoA]	–	–	–	10.6 µM	–
4.4 µM	CCCCCCCCCCCCCCCC(=O)SCCNC(=O)CCNC(=O)[C@H](O)C(C)(C)COP(=O)(O)OP(=O)(O)OC[C@H]1O[C@@H](n2cnc3c(N)ncnc32)[C@H](O)[C@@H]1OP(=O)(O)O [palmitoyl CoA]	–	–	–	2.2 µM	–
